Assays:
[1] = system: promastigotes of L. amaz/tc3; assay: Fluorescence assay against promastigotes of L. amaz/tc3 (tdTomato); assay type: cell-based, Leishmania (Leishmania) amazonensis; conditions: Leishmania, 48 h, read-out: IC50 against promastigotes of L. amaz/tc3
Description: Then, we evaluated the efficacy of MI, a reference drug for leishmaniasis by the fluorescence method (L. amaz/tc3) and by the conventional method based in counting the parasite at the optic microscope (L. amaz/wt). Mid-log promastigotes of L. amaz/tc3 and L. amaz/wt were harvest and seeded (1 x 10^6/0.1 ml) with different concentrations of MI (40 to 0.6 µg/ml) in a 96-well plate at 23°C. Promastigotes cultured only in medium were the controls. Parasite viability was determined by measuring the fluorescence of L. amaz/tc3 in a plate reader (Tecan, Männedorf, Switzerland) and by counting the mobile promastigotes in a Neubauer chamber at the optic microscope (40x) (Leitz Wetzlar, Germany) at 48 h of incubation with MI. Viability was calculated with the formula: ViabilityL.amaz/tc3 =FLt/FLc×100 where, FLt is the fluorescence of treated culture, and FLc is the fluorescence of control; ViabilityL.amaz/wt=NPt/NPc×100 where, NPt is the number of promastigotes in the treated culture, and NPc is the number of promastigotes in control culture. Then, the 50% inhibitory concentration (IC50) of MI was estimated.
After fluorescence assay validation as it is described above, the method was used to evaluate in vitro the flavonoids anti-leishmanial activity. Mid-log promastigotes of L. amaz/tc3 were harvest and seeded with different concentrations of GAL (1,200 to 18.75 µM), MO, FI and RU (40 to 1.25 µM), and EGCG (300 to 18.75 µM). Positive control were promastigotes treated with PE (4 to 0.25 µM), the negative control were promastigotes cultured with medium only, and the blank was the culture medium. The parasites were incubated at 23°C for 48 h. The anti-leishmanial activity was determined by measuring the parasite fluorescence in a plate reader (Tecan, Männedorf, Switzerland). The viability was estimated as was described above for MI (fluorescent assay). The IC50 was calculated for each compound.

[2] = system: Raw 264.7 macrophages infected with L. amaz/tc3; assay: Cytokine production (IL-12p70, IL-10) by macrophages, ELISA of culture supernatant; assay type: cell-based; conditions: 20 µM, 48 h
Description: Then, the culture supernatant was recovered and maintained at -80°C until use. The culture supernatant concentrations of IL-12p70 and IL-10 (BD Biosciences, San Diego, USA) were determined by ELISA following the specifications of the supplier. Each condition was performed in quadruplicate.

[3] = system: promastigotes of L. (L.) donovani; design: method as in Kaur et al., 2010; conditions: GAL isolated from Alpinia galanga rhizomes ref Kaur et al., 2010; read-out: IC50 against promastigotes of L. (L.) donovani; cited from earlier work

O=c1c(O)c(-c2ccccc2)oc2cc(O)cc(O)c12 [GAL, Galangin]
IC50 [1]: 53.1 µM | IL-10 concentration in culture supernatant ([2]; between treated groups): did not show significant differences | IL-12 p70 in culture supernatant, mean (range) ([2]; infected macrophages, infected non-stimulated controls 72.11 pg/ml, p < 0.01): 232.2 pg/mL | IC50 [3]: 100 µM

Source: paper PMC8213385, “Development of a Fluorescent Assay to Search New Drugs Using Stable tdTomato-Leishmania, and the Selection of Galangin as a Candidate With Anti-Leishmanial Activity” (Frontiers in Cellular and Infection Microbiology, 2021)
